Measured values published in ChEMBL document CHEMBL1140430, “Novel indole-based peroxisome proliferator-activated receptor agonists: design, SAR, structural biology, and biological activities” (J Med Chem, 2005).
Activity calls are given as the source filed them. No cut-off for these calls is given here.

Experiments:
[1] = biological target: T1, Peroxisome proliferator-activated receptor gamma (Homo sapiens, UniProt P37231)
T1 sequence (P37231 whole entry): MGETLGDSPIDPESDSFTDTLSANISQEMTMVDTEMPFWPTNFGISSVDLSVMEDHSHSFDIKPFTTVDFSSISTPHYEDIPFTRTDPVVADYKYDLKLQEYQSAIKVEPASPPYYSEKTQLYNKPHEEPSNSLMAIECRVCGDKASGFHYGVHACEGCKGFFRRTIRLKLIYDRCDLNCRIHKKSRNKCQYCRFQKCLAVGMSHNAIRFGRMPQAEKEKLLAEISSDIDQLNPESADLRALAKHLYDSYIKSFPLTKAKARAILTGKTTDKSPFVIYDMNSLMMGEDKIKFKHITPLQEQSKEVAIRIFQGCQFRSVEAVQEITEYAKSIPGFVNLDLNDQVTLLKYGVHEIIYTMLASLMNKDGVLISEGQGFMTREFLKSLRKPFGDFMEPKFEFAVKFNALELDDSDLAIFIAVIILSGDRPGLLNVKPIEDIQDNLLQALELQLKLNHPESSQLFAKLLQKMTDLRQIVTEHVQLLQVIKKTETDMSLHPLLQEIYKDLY
Description: Displacement of [3H]rosiglitazone from human PPAR gamma by SPA assay

[2] = biological target: T1, Peroxisome proliferator-activated receptor gamma; type: functional, cell-based, Huh-7
Description: Functional activity at human PPAR gamma in Huh7 cells by transactivation assay

[3] = biological target: T2, Peroxisome proliferator-activated receptor delta (Homo sapiens, UniProt Q03181)
T2 sequence (Q03181 whole entry): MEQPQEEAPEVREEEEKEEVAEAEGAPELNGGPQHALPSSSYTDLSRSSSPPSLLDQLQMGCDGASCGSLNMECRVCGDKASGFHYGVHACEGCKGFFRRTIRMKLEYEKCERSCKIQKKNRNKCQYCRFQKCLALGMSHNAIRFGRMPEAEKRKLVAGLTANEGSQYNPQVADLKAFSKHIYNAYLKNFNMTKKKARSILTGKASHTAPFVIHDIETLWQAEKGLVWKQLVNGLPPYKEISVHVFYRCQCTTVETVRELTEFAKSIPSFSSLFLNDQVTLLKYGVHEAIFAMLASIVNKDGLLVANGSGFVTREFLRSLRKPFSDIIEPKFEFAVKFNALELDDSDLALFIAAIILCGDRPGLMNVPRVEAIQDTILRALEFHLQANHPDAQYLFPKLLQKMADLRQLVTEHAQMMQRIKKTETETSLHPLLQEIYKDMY
Description: Functional activity at human PPAR delta in Huh7 cells by transactivation assay

[4] = biological target: T3, Peroxisome proliferator-activated receptor alpha (Homo sapiens, UniProt Q07869); assay: Functional activity at human PPAR alpha in Huh7 cells by transactivation assay; type: cell-based, Huh-7
T3 sequence (Q07869 whole entry): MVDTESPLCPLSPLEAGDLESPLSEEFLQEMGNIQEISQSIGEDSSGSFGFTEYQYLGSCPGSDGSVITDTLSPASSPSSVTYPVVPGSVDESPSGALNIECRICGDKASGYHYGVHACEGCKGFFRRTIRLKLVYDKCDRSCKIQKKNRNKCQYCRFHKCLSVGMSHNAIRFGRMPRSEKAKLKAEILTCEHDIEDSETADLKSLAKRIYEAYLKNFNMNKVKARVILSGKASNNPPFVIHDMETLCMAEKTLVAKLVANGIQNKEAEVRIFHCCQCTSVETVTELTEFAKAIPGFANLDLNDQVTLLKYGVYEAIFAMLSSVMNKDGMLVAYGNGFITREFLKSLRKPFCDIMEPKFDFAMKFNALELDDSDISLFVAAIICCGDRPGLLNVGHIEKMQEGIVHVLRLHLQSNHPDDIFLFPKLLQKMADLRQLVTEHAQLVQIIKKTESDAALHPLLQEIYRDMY

[5] = Area under curve (0-24) in male BALB/c mice administered with 35 mg/kg, po; type: ADME, organism-based; parameters: dose 35 mg/kg, route oral; settings: mouse, in vivo
[6] = Clearance in male BALB/c mice administered with 9.7 mg/kg, iv; type: ADME, organism-based; parameters: dose 9.7 mg/kg, route intravenous; settings: mouse, in vivo
[7] = Maximum concentration in male BALB/c mice administered with 35 mg/kg, po; type: ADME, organism-based; parameters: dose 35 mg/kg, route oral; settings: mouse, in vivo
[8] = Oral bioavailability in male BALB/c mice administered with 35 mg/kg, po; type: ADME, organism-based; settings: mouse, in vivo
[9] = Volume of distribution in male BALB/c mice administered with 9.7 mg/kg, iv; type: ADME, organism-based; parameters: dose 9.7 mg/kg, route intravenous; settings: mouse, in vivo, read-out: Vss
[10] = Time taken to achieve maximum concentration in male BALB/c mice administered with 35 mg/kg, po; type: ADME, organism-based; parameters: dose 35 mg/kg, route oral; settings: mouse, in vivo
[11] = Area under curve (0-24) in male BALB/c mice administered with 9.7 mg/kg, iv; type: ADME, organism-based; parameters: dose 9.7 mg/kg, route intravenous; settings: mouse, in vivo
[12] = Half life in male BALB/c mice administered with 9.7 mg/kg, iv; type: ADME, organism-based; parameters: dose 9.7 mg/kg, route intravenous; settings: mouse, in vivo
[13] = Half life in male BALB/c mice administered with 35 mg/kg, po; type: ADME, organism-based; parameters: dose 35 mg/kg, route oral; settings: mouse, in vivo
Mus musculus [14] = assay: Effect on reduction of plasma glucose in orally dosed KKAy/TaJcl mice at 10 mg/kg in a 10 day study; type: functional, organism-based; parameters: dose 10 mg/kg
Mus musculus [15] = assay: Effect on reduction of plasma glucose in orally dosed KKAy/TaJcl mice at 30 mg/kg in a 10 day study; type: functional, organism-based; parameters: dose 30 mg/kg

| SMILES | IC50 [1] [nM] | EC50 [2] [nM] | EC50 [3] [nM] | EC50 [4] [nM] | also measured |
| --- | --- | --- | --- | --- | --- |
| CCCc1c(OCCCOc2ccc3c(ccn3CC(=O)O)c2)ccc2c(C(=O)C(F)(F)F)c[nH]c12 | 2410 | > 10000 | 9170 | 2200 | – |
| CCCc1c(OCCCOc2cccc3c2ccn3CC(=O)O)ccc2cc[nH]c12 | 4810 | 1810 | 420 | 1210 | – |
| CCCc1c(OCCCOc2ccc3c(ccn3CC(=O)O)c2)ccc2c(C(F)(F)F)noc12 [listing 1 of 2 here] | – | – | – | 14 | – |
| CCCc1c(OCCCOc2cccc3c2ccn3CC(=O)O)ccc2cc(-c3ccccc3)oc12 | 1950 | > 10000 | 7740 | > 10000 | – |
| CCCc1c(OCCCOc2cccc3c2ccn3CC(=O)O)ccc2c(-c3ccccc3)noc12 | 127 | 430 | 320 | 2 | – |
| CCCc1c(OCCCOc2ccc3c(ccn3Cc3nn[nH]n3)c2)ccc2c(C(F)(F)F)noc12 | 1120 | 898 | 370 | 474 | – |
| CCCc1c(OCCCOc2ccc3c(ccn3CC(=O)[O-])c2)ccc2c(C(F)(F)F)noc12.[Na+] | – | – | – | – | AUC [5]: 652 µg·h/mL; clearance [6]: 0.9 mL/min/kg; Cmax [7]: 59 µg/mL; bioavailability [8]: 100%; Vd [9]: 0.4 L/kg; Tmax [10]: 4.7 h; AUC [11]: 181 µg·h/mL; half-life [12]: 414 min; half-life [13]: 468 min |
| CCCc1c(OCCCCOc2cccc3c2ccn3CC(=O)O)ccc2c(C(F)(F)F)noc12 | 774 | 1980 | > 10000 | > 10000 | – |
| CCCc1c(OCCCCOc2ccc3c(ccn3CC(=O)O)c2)ccc2c(C(F)(F)F)noc12 | 105 | 280 | 243 | 1040 | – |
| CCCc1c(OCCCOc2ccc3c(ccn3CC(=O)O)c2)ccc2c(C#N)c[nH]c12 | 759 | 9170 | 2620 | 5210 | – |
| CCCc1c(OCC(C)COc2cccc3c2ccn3CC(=O)O)ccc2c(C(F)(F)F)noc12 (stereo not drawn) | 1300 | 3030 | – | – | – |
| CCCc1c(OCCCOc2cccc3c2ccn3CC(=O)O)ccc2c(-c3ccccc3)coc12 | 3970 | 4150 | 2130 | 169 | – |
| CCCc1c(OCCCOc2cccc3c2ccn3CC(=O)O)ccc2cc(-c3ccccc3)[nH]c12 | 1680 | 2820 | 3340 | 500 | – |
| CCCc1c(OCCOc2ccc3c(ccn3CC(=O)O)c2)ccc2c(C(F)(F)F)noc12 | 422 | 690 | 125 | 311 | – |
| CCCc1c(OCCCOc2ccc3ccn(CC(=O)O)c3c2)ccc2c(C(F)(F)F)noc12 | 1050 | 1350 | 80 | 1820 | – |
| CCCc1c(OCCCOc2cccc3c2ccn3CC(=O)O)ccc2c(C(F)(F)F)noc12 | 1990 | 2390 | 610 | 186 | – |
| CCCc1c(OCCCOc2ccc3c(ccn3CC(=O)O)c2)ccc2c(C(F)(F)F)noc12 [listing 2 of 2 here] | – | – | – | – | Activity (Mus musculus [14]): Active; Activity (Mus musculus [15]): Active |
| CCCc1c(OCCCOc2ccc3c(ccn3CC(=O)O)c2)ccc2c(-c3ccccc3)noc12 | 120 | 290 | 80 | 18 | – |

Second part, led by results:

| IC50 [1] [nM] | EC50 [2] [nM] | SMILES | EC50 [3] [nM] | EC50 [4] [nM] | also measured |
| --- | --- | --- | --- | --- | --- |
| 1780 | > 10000 | CCCc1c(OCCCCCOc2cccc3c2ccn3CC(=O)O)ccc2c(C(F)(F)F)noc12 | – | – | – |
| 1490 | > 10000 | CCCc1c(OCCOc2cccc3c2ccn3CC(=O)O)ccc2c(C(F)(F)F)noc12 | – | – | – |
| 1100 | 2190 | CCCc1c(OCCCOc2cccc3c2ccn3CCC(=O)O)ccc2c(C(F)(F)F)noc12 | – | – | – |
| 1370 | > 10000 | CCCc1c(OCCC(C)CCOc2ccc3c(ccn3CC(=O)O)c2)ccc2c(C(F)(F)F)noc12 (stereo not drawn) | – | – | – |
| 1710 | 5900 | CCCc1c(OCCCOc2ccc3c(ccn3C(CC)C(=O)O)c2)ccc2c(C(F)(F)F)noc12 (stereo not drawn) | – | – | – |
| 1450 | > 10000 | CCCc1c(OCCC(C)CCOc2cccc3c2ccn3CC(=O)O)ccc2c(C(F)(F)F)noc12 (stereo not drawn) | – | – | – |
| 1280 | > 10000 | CCCc1c(OCCCOc2cccc3c2ccn3C(CC)C(=O)O)ccc2c(C(F)(F)F)noc12 (stereo not drawn) | – | – | – |
| 1050 | 1490 | CCCc1c(OCCCCCOc2ccc3c(ccn3CC(=O)O)c2)ccc2c(C(F)(F)F)noc12 | – | – | – |
| 584 | 1200 | CCCc1c(OCCCOc2ccc3c(ccn3CCC(=O)O)c2)ccc2c(C(F)(F)F)noc12 | – | – | – |
